According to patent US20250026743A1, “HETEROARYL-LINKED ANALOGS AS MGLU5 NEGATIVE ALLOSTERIC MODULATORS AND METHODS OF MAKING AND USING THE SAME” (Vanderbilt University, priority 2021, published 2025):

Legend:
[1] = tested on: N-methyl-D-aspartate (NMDA) receptor; conditions: at higher concentrations; cited from earlier work
mGlu4 = mGlu4 (Homo sapiens, UniProt Q14833); conditions: cited from earlier work
cytochrome P450 1A2 = biological target: T1, cytochrome P450 1A2 (Homo sapiens, UniProt P05177); conditions: cited from earlier work
T1 sequence (P05177 1-516): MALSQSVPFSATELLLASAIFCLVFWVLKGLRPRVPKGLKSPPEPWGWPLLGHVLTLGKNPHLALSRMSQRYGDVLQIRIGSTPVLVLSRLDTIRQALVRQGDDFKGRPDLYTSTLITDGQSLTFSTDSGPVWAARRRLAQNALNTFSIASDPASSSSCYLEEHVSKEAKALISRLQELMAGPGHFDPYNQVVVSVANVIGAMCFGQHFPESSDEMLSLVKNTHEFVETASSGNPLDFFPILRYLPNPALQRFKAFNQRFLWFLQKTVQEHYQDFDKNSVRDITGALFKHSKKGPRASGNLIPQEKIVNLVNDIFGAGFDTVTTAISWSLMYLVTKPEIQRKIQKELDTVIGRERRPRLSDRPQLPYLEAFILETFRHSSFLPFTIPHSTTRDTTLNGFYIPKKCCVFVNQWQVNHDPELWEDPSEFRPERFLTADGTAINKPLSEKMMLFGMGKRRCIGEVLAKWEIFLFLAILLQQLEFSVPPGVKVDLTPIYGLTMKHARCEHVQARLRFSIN

[2] = intravenous administration, rhesus monkeys; cited from earlier work
hmGlu5 = biological target: T2, hmGlu5 (Homo sapiens, UniProt P41594); assay: mGlu5 Ca2+ flux assay in HEK 293A cells (negative allosteric modulation of glutamate EC80 response); format: cell-based
T2 construct: expressed in transfected cells; host or cells: HEK 293A
T2 sequence (P41594 21-1212): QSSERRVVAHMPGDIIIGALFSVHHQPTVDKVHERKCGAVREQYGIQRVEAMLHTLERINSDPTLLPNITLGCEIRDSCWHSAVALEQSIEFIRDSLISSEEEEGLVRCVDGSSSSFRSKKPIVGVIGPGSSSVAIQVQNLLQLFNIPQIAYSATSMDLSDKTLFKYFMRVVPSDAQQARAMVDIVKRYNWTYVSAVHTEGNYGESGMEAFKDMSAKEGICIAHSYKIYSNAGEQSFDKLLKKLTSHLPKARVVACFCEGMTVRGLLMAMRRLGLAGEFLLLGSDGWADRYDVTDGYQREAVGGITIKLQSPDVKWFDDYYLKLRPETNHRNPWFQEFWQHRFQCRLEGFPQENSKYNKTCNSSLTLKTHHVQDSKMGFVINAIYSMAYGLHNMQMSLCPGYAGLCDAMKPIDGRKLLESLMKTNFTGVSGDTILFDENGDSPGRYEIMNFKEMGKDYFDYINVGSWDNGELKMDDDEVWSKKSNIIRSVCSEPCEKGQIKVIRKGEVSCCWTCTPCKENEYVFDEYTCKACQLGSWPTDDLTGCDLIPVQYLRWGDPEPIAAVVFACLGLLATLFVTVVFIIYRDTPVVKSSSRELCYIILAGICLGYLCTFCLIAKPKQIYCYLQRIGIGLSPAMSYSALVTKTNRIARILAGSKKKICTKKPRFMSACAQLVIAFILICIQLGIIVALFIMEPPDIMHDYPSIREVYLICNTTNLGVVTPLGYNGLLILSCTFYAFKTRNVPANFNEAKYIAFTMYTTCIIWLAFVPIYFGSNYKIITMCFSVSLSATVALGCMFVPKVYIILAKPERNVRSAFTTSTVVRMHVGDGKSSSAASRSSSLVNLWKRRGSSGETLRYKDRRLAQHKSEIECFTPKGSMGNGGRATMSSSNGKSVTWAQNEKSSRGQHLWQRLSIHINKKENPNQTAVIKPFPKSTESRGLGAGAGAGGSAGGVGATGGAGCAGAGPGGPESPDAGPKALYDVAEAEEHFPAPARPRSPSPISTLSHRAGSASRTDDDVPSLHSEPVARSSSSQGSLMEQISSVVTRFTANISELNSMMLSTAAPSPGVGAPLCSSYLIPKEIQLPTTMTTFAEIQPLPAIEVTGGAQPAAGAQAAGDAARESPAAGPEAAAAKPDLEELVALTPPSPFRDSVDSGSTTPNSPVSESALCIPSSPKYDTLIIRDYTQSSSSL
In short: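 HEK 293A cells stably expressing rat or human mGlu5, Fluo-4 AM loaded; compound added 2.3 min before glutamate EC20, then EC80; Ca2+ fluorescence peak amplitudes (F/F0) normalised to glutamate max. IC50 from 4-parameter logistic fit, 10-point 1:3 curves, top 30 μM; partial NAMs plateau above 10% Glu Max.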

Sequence of mGlu4 (Q14833 33-912): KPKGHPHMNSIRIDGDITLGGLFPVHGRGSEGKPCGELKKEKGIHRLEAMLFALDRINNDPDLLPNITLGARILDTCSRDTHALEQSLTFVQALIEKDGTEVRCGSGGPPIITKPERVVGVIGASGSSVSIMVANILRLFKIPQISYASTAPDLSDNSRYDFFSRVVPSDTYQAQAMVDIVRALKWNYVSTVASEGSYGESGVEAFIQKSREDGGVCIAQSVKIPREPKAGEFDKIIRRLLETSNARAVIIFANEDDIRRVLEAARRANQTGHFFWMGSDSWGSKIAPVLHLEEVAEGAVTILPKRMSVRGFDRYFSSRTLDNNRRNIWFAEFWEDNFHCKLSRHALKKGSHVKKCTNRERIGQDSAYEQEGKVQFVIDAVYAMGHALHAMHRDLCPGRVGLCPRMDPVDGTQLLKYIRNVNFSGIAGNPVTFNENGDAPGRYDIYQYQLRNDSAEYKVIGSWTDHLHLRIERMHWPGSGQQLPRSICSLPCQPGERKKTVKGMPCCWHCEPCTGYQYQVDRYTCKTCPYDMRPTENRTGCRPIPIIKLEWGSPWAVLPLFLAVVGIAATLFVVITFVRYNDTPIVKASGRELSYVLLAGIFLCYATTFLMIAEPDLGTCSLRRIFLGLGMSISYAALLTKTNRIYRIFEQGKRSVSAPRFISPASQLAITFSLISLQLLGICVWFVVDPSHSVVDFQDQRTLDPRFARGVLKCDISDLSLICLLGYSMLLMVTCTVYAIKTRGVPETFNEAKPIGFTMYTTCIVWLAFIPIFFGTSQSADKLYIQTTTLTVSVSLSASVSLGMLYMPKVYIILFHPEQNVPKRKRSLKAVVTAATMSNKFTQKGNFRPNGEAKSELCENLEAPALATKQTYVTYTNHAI

Which “inhibition of NMDA receptor activity” value [1] does the source give for `Cc1cccc(C#Cc2ccccc2)n1` [MPEP, 2-methyl-6-(phenylethynyl) pyridine] here?
Its value is “directly inhibit”.

And the “modulation of mGlu4” value (mGlu4)?
Its value is “positive allosteric modulator”.

For `Cc1nc(C#Cc2cccnc2)cs1` [MTEP, 3-[(2-methyl-1,3-thiazol-4-yl)ethynyl]pyridine], which “inhibition of cytochrome P450 1A2” value (cytochrome P450 1A2) is on record?
Its value is “potent inhibitor”.

What about the clearance [2] of the same compound?
The clearance was “efficiently cleared”.

With `Cc1nc(-c2nnc(-c3ccc(F)cn3)o2)cc(-c2cnccc2Cl)c1F` [Compound 77, 2-(4-chloro-5′-fluoro-6′-methyl-[3,4′-bipyridin]-2′-yl)-5-(5-fluoropyridin-2-yl)-1,3,4-oxadiazole] as the compound, how does the remaining activity at 30 µM (hmGlu5; HEK293-A, % Glu max at 30 μM, read-out: hmGlu5 NAM Emin (%)) read?
Its remaining activity at 30 µM is 3%.

And the IC50 (hmGlu5; HEK 293A cells, Ca2+ flux, glutamate EC80, >10,000 = decrease without plateau, read-out: hmGlu5 NAM IC50)?
Its IC50 is 138 nM.
